Where a SMILES comes first, the peptide text is derived from it. The star is where a group is joined. Cbz = O=C(OCc1ccccc1)*
Key:
rat ovocytes [1] = test: Inhibition of spontaneous activation of rat ovocytes by exposure to a proteasome inhibitor; type: cell-based; conditions: repeats n = 2
Excerpt: The method according to the invention presents the advantage of strictly and reversibly controlling the ovocyte activation process by acting upstream of the biochemical processes that control activation and by preventing the degradation of the macromolecular compounds responsible for arrest of the ovocyte in metaphase and in particular of the cyclins. In order to do this, the ovocyte is exposed in vitro to one or more inhibitor(s) of proteasome, a key organelle of the cell: inhibition of its proteolytic action on the cyclins makes it possible to maintain an elevated level of MPF kinasic activity which determines metaphase arrest. The majority of ovocytes may thus be maintained in metaphase of the second meiotic division for several hours after their harvest (table 1).
Solutions: • Medium M2 (Hogan & al, 1994 In: Manipulating the Mouse Embryo) • Medium RECMB2*-MG132 (MG132=1.25 μM) • Medium M2-Hyaluronidase-MG132 (MG132=1.25 μM; Hyaluronidase=2.5 mg/ml) • Medium M2-MG132 (MG132=5.00 μM) • *RECMB2=medium mRlECM-BSA (Oh & al. (1998) Biol. Reprod.), with BSA=4 mg/ml and NaCl=100-130 mM.
10. The “decoronised” ovocytes are transferred to a drop of culture medium RECMB2-MG132.

[2] = tested on: rat embryos reconstructed from ovocytes; test: Rate of foetal development of rat embryos reconstructed from ovocytes previously exposed to a proteasome inhibitor; type: in vivo
Excerpt: By the method according to the invention, the ovocytes are transferred to a medium not containing inhibitor(s) right before conducting the reconstruction of the embryos. This makes it possible to avoid direct exposure of the nucleus donor cells to their action. Reconstruction of the embryos must then be carried out very rapidly before proteasome becomes functional again in order to avoid a premature activation of the ovocyte. The purpose of this rapid reconstruction is to […] the period during which the condensed chromatin of the nucleus is directly exposed to the ovocyte factors which make possible the reprogramming of the activity of the foreign nucleus. It then becomes possible to reconstitute a greater number of embryos during a given time period, and therefore to increase the number of transplanted embryos per recipient female for in vivo development. This possibility makes it possible to get around the low rate of implantation observed in the rat after transfer of a nucleus (table 4).
These foetuses may give rise to viable baby rats (table 4).
Set up the retention and enucleation-injection pipettes on their respective pipette holders. • 5. Position the pipettes so that their ends are horizontal, i.e., parallel to the coverglass of the micromanipulation chamber, and facing each other. • 6. Transfer the ovocytes and the cells to the micro-injection chamber by means of a pipette for manipulation of the ovocytes. • 7. Maintain an ovocyte on the maintenance pipette in order that the deformation of the plasma membrane under which the ovocyte metaphase is situated, is situated between 2 and 3 hr or between 3 and 4 hr. • 8. Apply the enucleation-injection pipette to the pellucid area at 3 hr. Verify that the pipette is in exactly the same plane as the pellucid area. Gently aspirate the pellucid area and activate the piezo system (setting 1) to puncture it. When the system is perfectly adjusted the pellucid area is punctured in a few seconds according to a perfect punch. • 9. Next, aspirate a cell whose morphology corresponds to the sought-for criteria into the enucleation-injection pipette and break its plasma membrane by several to-and-fro's in the pipette or by means of the piezo-Drill (a few impulsions are sufficient at setting 2). Maintain the cell close to the end of the micropipette. • 10. Penetrate into the perivitelline space of the ovocyte through the previously punctured orifice, apply the pipette against the plasma membrane and push the donor cell back to the end of the pipette and then push the pipette in up to the opposite end of the ovocyte without, however, reaching the plasma membrane opposite. • 11. Break the plasma membrane by means of one or more impulsions (1 to 3) of the Piezo-Drill (setting 2). • 12. Inject the cell into the cytoplasm of the ovocyte with the minimum possible medium. • 13. Gently withdraw the enucleation-injection pipette and re-close the ovocyte by aspirating the 2 ends of the broken plasma membrane and the ovocyte metaphase (enucleation). • 14. Transfer the reconstructed embryos into a micro-drop (50 μl) of RECMB2. • 15. Ovocyte activation is triggered or prolonged by transfer of the ovocytes to a micro-drop (20 μl) of RECMB2-BLI for a duration of activation generally between 1 and 2 hr. • 16. The ovocytes are then rinsed in 4-5 drops (50 μl) of RECMB2 to be cultured in the same medium while waiting to be transferred into a pseudogestating female or to prolong in vitro culture.

rat ovocytes [3] = test: Reversibility of the inhibition of spontaneous activation of rat ovocytes (parthenogenetic development after removal of MG132 and activation by butyrolactone); type: cell-based; conditions: repeats n = 5
[4] = reconstructed embryos transferred to recipient females

## CC(C)C[C@@H](C=O)NC(=O)[C@H](CC(C)C)NC(=O)[C@H](CC(C)C)NC(=O)OCc1ccccc1 [MG132, peptide aldehyde Cbz-LLL-H] (Cbz-Leu-Leu-Leu-aldehyde)
Rat ovocytes [1]; t = 0
  % of activated ovocytes after collection: 0% (0/68)
Rat ovocytes [1]; t = 210 m after collection
  % of activated ovocytes after collection: 33.8% (23/68)
[2]; % in brackets
  No. of foetuses (%) total: 55.9%
  No. of foetuses (%) viable: 47.0%
[2]; number of recipient females
  pregnant recipients between D12-22: 11
[2]; of the viable foetuses
  living at D12-D14: 11
  living rats at term: 5
[2]; rat, in vivo
  No. of foetuses total: 19
  No. of foetuses viable: 16
[2]; [4]
  implantation (%): 5.4%
  implantation (number): 34
Rat ovocytes [3]; t = 0 removal of MG132, exposure to MG132 for 120 min, activation by butyrolactone
  % of embryos (parthenogenetic development at the morula stage): 0% (0/71)
Rat ovocytes [3]; t = 120 min, after removal of MG132 and induction of activation by butyrolactone
  % of embryos (parthenogenetic development at the morula stage): 45.9% (34/74)

Reference: US7799969B2, “Methods for cloning rats by nuclear transfer” (Institut National de la Recherche Agronomique, priority 2003, dated 2010)
